# Assay results as given in patent publication US11850286B2, “Sulfamide linker, conjugates thereof, and methods of preparation” (priority 2014, dated 2023).
# Assay: Determination of HPLC retention time (RP-HPLC, polarity)
# Type: physicochemical
# Procedure: Samples of compounds 19-38 were injected on an HPLC system equipped with an Phenomenex Luna C18(2) 5μ, 150×4.6 mm, 100 Å column and eluted with either a gradient of 10% MeCN (0.1% TFA)/90% water (0.1% TFA) to 90% MeCN (0.1% TFA)/10% water (0.1% TFA) or a gradient of 10% MeCN/90% 10 mM potassium phosphate buffer pH 7.4 to 90% MeCN/10% 10 mM potassium phosphate buffer pH 7.4. The retention times obtained for these compounds are depicted in Table 3.
# [1] = RP-HPLC C18, MeCN/10 mM potassium phosphate buffer pH 7.4 gradient
# [2] = RP-HPLC C18, MeCN/water gradient with 0.1% TFA
SMILES,retention time [1],retention time [2]
"O=C(CCCCCCNC(=O)OCC1C2CCC#CCCC21)NCc1ccccc1 (centres unmarked) [Compound 19, BCN-Heptanoic Acid Benzylamide]",11.4 min,11.4 min
O=C(CCCCCCNC(=O)OCC1C2CCC#CCCC21)NS(=O)(=O)NCc1ccccc1 (centres unmarked) [Compound 20],9.6 min,11.6 min
O=C(NCCCCCOC(=O)NS(=O)(=O)NCc1ccccc1)OCC1C2CCC#CCCC21 (centres unmarked) [Compound 21],9.2 min,11.6 min
CN(C(=O)OCCCCCNC(=O)OCC1C2CCC#CCCC21)S(=O)(=O)NCc1ccccc1 (centres unmarked) [Compound 22],12.6 min,12.7 min
COc1cc2cc(c1Cl)N(C)C(=O)C[C@H](OC(=O)[C@H](C)N(C)C(=O)CCCCCNC(=O)CCOCCOCCOCCOCCNC(=O)OCC1C3CCC#CCCC31)[C@]1(C)O[C@H]1[C@H](C)[C@@H]1C[C@@](O)(NC(=O)O1)[C@H](OC)/C=C/C=C(\C)C2 (some centres unmarked) [Compound 30],10.6 min,10.5 min
COc1cc2cc(c1Cl)N(C)C(=O)C[C@H](OC(=O)[C@H](C)N(C)C(=O)CCCCCNC(=O)CCOCCOCCOCCOCCOCCOCCOCCOCCOCCOCCOCCOCCNC(=O)OCC1C3CCC#CCCC31)[C@]1(C)O[C@H]1[C@H](C)[C@@H]1C[C@@](O)(NC(=O)O1)[C@H](OC)/C=C/C=C(\C)C2 (some centres unmarked) [Compound 31],10.1 min,10.1 min
COc1cc2cc(c1Cl)N(C)C(=O)C[C@H](OC(=O)[C@H](C)N(C)C(=O)CCCCCNC(=O)CCOCCOCCOCCOCCOCCOCCOCCOCCOCCOCCOCCOCCOCCOCCOCCOCCOCCOCCOCCOCCOCCOCCOCCOCCNC(=O)OCC1C3CCC#CCCC31)[C@]1(C)O[C@H]1[C@H](C)[C@@H]1C[C@@](O)(NC(=O)O1)[C@H](OC)/C=C/C=C(\C)C2 (some centres unmarked) [Compound 32],9.7 min,9.7 min
COc1cc2cc(c1Cl)N(C)C(=O)C[C@H](OC(=O)[C@H](C)N(C)C(=O)CCCCCNC(=O)OCc1ccc(NC(=O)[C@H](CCCNC(N)=O)NC(=O)[C@@H](NC(=O)OCCOCCNS(=O)(=O)NC(=O)OCC3C4CCC#CCCC43)C(C)C)cc1)[C@]1(C)O[C@H]1[C@H](C)[C@@H]1C[C@@](O)(NC(=O)O1)[C@H](OC)/C=C/C=C(\C)C2 (some centres unmarked) [Compound 36],9.3 min,10.4 min
COc1cc2cc(c1Cl)N(C)C(=O)C[C@H](OC(=O)[C@H](C)N(C)C(=O)CCCCCNC(=O)OCc1ccc(NC(=O)[C@H](CCCNC(N)=O)NC(=O)[C@@H](NC(=O)OCCN(CCOC(=O)N[C@H](C(=O)N[C@@H](CCCNC(N)=O)C(=O)Nc3ccc(COC(=O)NCCCCCC(=O)N(C)[C@@H](C)C(=O)O[C@H]4CC(=O)N(C)c5cc(cc(OC)c5Cl)C/C(C)=C/C=C/[C@@H](OC)[C@@]5(O)C[C@H](OC(=O)N5)[C@@H](C)[C@@H]5O[C@@]45C)cc3)C(C)C)S(=O)(=O)NC(=O)OCC3C4CCC#CCCC43)C(C)C)cc1)[C@]1(C)O[C@H]1[C@H](C)[C@@H]1C[C@@](O)(NC(=O)O1)[C@H](OC)/C=C/C=C(\C)C2 (some centres unmarked) [Compound 37],10.5 min,11.2 min
COc1cc2cc(c1Cl)N(C)C(=O)C[C@H](OC(=O)[C@H](C)N(C)C(=O)CCCCCNC(=O)OCc1ccc(NC(=O)[C@H](CCCNC(N)=O)NC(=O)[C@@H](NC(=O)OCCN(CCOC(=O)N[C@H](C(=O)N[C@@H](CCCNC(N)=O)C(=O)Nc3ccc(COC(=O)NCCCCCC(=O)N(C)[C@@H](C)C(=O)O[C@H]4CC(=O)N(C)c5cc(cc(OC)c5Cl)C/C(C)=C/C=C/[C@@H](OC)[C@@]5(O)C[C@H](OC(=O)N5)[C@@H](C)[C@@H]5O[C@@]45C)cc3)C(C)C)S(=O)(=O)NC(=O)OCCOCCNS(=O)(=O)NC(=O)OCC3C4CCC#CCCC43)C(C)C)cc1)[C@]1(C)O[C@H]1[C@H](C)[C@@H]1C[C@@](O)(NC(=O)O1)[C@H](OC)/C=C/C=C(\C)C2 (some centres unmarked) [Compound 38],9.5 min,11.1 min
